Assay results from patent US9340563B2, “Salts of isophosphoramide mustard and analogs thereof” (priority 2007, dated 2016).
≈ marks a conversion by molar mass, not a printed value. Read-outs that look alike come from different tables or passages of the source.

What was measured:
pH (Example 16) = assay type: physicochemical
[1] = assay type: physicochemical; details: temperature and duration of storage
[2] = system: MX-1 human mammary tumors; assay: MX-1 human mammary tumor xenograft (Example 7); assay type: in vivo, athymic NCr-nu/nu mice
Experimental: Each concentration was then aliquoted for daily use, frozen, stored at −20° C., and thawed for daily use.
The control groups were treated either ip or po with the vehicle (saline).
Study Duration: The study was terminated 50 days after tumor implantation.

[3] = assay type: physicochemical; details: pH 7 buffer, approximately 25° C.
MX-1 human mammary tumor = MX-1 human mammary tumor xenograft (Example 8)
From the text: Animal Care: Five-weeks-old female athymic NCr-nu/nu mice were purchased from Harlan (Prattville, Ala.).
Tumor Model: Thirty-to-forty mg fragments of MX-1 human mammary tumor maintained in an in vivo passage were implanted sc in mice in the mammary fat pad using a 12-gauge trocar needle and allowed to grow. The day of tumor implantation was designated as day 0. […] A sufficient number of mice were implanted so that tumors in a weight range as narrow as possible were selected for the trial on the day of treatment initiation (day 6 after tumor implantation). Those animals selected with tumors in the proper size range were assigned to the various treatment groups so that the median tumor weights on the first day of treatment were as close to each other as possible (144-162 mg).
All dosing solutions were kept on ice after formulation and were administered within 30 min. All injections were administered on the basis of exact body weight with the injection volume being 0.2 mL/10 g body weight.
Drug Treatment: The experiment consisted of 16 treatment groups of eight mice per group and two vehicle-treated control groups with ten mice each for a total of 148 mice on the first day of treatment. All agents (and vehicle) were administered daily for five consecutive days (q1d×5). […] The control groups were treated either ip (group no. 1) or po (group no. 10) with the vehicle (saline).
Tumor Measurements and Body Weights: The sc tumors were measured and the animals were weighed twice weekly starting with the first day of treatment. Tumor volume was determined by caliper measurements (mm) and using the formula for an ellipsoid sphere: L×W^2/2=mm^3, where L and W refer to the larger and smaller perpendicular dimensions collected at each measurement. This formula is also used to calculate tumor weight, assuming unit density (1 mm^3=1 mg.).
Study Duration: The study was terminated 52 days after tumor implantation. Any animal that became moribund or whose tumor became ulcerated and reached 4,000 mg was euthanized prior to study termination.
Parameters Evaluated: Number of nonspecific deaths, number of partial and complete tumor regressions, number of tumor-free survivors, and the individual animals' times to reach two tumor mass doublings were determined. The median time to reach two tumor mass doubling in the treatment groups (T) and control group (C) was used in the calculation of the overall delay in the growth of the median tumor (T-C).
Statistical Analysis: The individual animal's time to reach two tumor mass doublings was used as the endpoint in a Student's t-test/Mann Whitney rank sum test in order to compare statistically the growth data between groups.

[4] = Solubility and reconstitution time (Example 16); assay type: physicochemical
[5] = system: CPA-resistant human sarcoma cells (OS31 osteosarcoma); details: mice with xenografts of CPA-resistant human sarcoma cells
From the text: CB17 female scid*/* mice (Taconic Farms, Germantown, N.Y.) were implanted with tumor subcutaneous flank tumors. […] For transplantation with OS1 tumor, mice were anesthetized with 4% isoflurane. After a small incision was made in the flank of the mouse, and a 4 mm by 4 mm section of tumor implanted subcutaneously.
When the tumors were approximately 0.20 to 0.7 cm in diameter, tumor-bearing mice were randomized into groups of 5 to 8 mice with 1 treatment group and 1 control group. Treated mice received tasidotin at a dose of 90 mg/kg/day as an intraperitoneal injection daily for 5 days starting on days 1 and 21. Assuming a spherical tumor, the volume was determined by the formula: mm^3=*/6(D)d^2, where D is the maximal diameter and d is the diameter perpendicular to D. Volumes are expressed as relative tumor volumes (RTV) where the tumor volume at any given time point is divided by the starting tumor volume. The RTV for treated and control mice were measured a minimum of once per week.
A partial response is defined as greater than 50% regression in tumor volume (RTV<0.5) but with a measurable tumor mass of greater than 0.10 cm^3. Loss of measurable tumor mass (<0.10 cm^3) at any point during the treatment period (6 weeks) was defined as a complete response (CR). […]

Question: Which results are given for O=P(O)(NCCCl)NCCCl [IPM, isophosphoramide mustard]?
Answer: pH (pH (Example 16)): 3.02; Current Stability Data Summary: No change in purity at [1]: −70° C., 2 years; maximum loss in mean body weight ([2]; ip q1d×5, 24 mg/kg/dose): 5%; tumor growth delay (T-C) ([2]; ip q1d×5, 24 mg/kg/dose): 2.6 days; maximum loss in mean body weight ([2]; ip q1d×5, 36 mg/kg/dose): 0%; maximum loss in mean body weight ([2]; po q1d×5, 81 mg/kg/dose): 5%; tumor growth delay (T-C) ([2]; po q1d×5, 81 mg/kg/dose): 4.0 days; maximum loss in mean body weight ([2]; po q1d×5, 120 mg/kg/dose): 5%; tumor growth delay (T-C) ([2]; po q1d×5, 120 mg/kg/dose): 4.6 days; % Purity ([3]; 0.5 hours): 89.5%; % Purity ([3]; 1.0 hours): 80.3%; % Purity ([3]; 2.0 hours): 64.8%; % Purity ([3]; 3.0 hours): 52.1%; % Purity ([3]; reconstitution time 0 hours): 100.00%; maximum loss in mean body weight (MX-1 human mammary tumor; ip q1d×5, 24 mg/kg/dose): 2%; tumor growth delay (T-C) (MX-1 human mammary tumor; ip q1d×5, 24 mg/kg/dose): 0.3 days; maximum loss in mean body weight (MX-1 human mammary tumor; ip q1d×5, 36 mg/kg/dose): 8%; maximum loss in mean body weight (MX-1 human mammary tumor; po q1d×5, 81 mg/kg/dose): 9%; tumor growth delay (T-C) (MX-1 human mammary tumor; po q1d×5, 81 mg/kg/dose): 2.3 days; maximum loss in mean body weight (MX-1 human mammary tumor; po q1d×5, 120 mg/kg/dose): 18%; tolerability (MX-1 human mammary tumor; po q1d×5, 120 mg/kg/dose): toxic; deaths (MX-1 human mammary tumor; po q1d×5, 120 mg/kg/dose, eight mice per group): two deaths; Solubility at 25° C. (saline) [4]: 14 mg/mL (≈ 63.3 mM)

Question: With O=P1(N(CCCl)CCCl)NCCCO1 (stereo not drawn) [CPA, cyclophosphamide] as the molecule, how does the “effect of therapy on sarcoma growth” value [5] read?
Answer: Its value is “no effect”.
